From patent publication US20110065760A1, “COMPOUNDS FOR THE INHIBITION OF ROTAMASES AND USE THEREOF” (Jerini AG, priority 2002, published 2011) come the findings set out here.

Data set [1] addresses hPin1 (Homo sapiens, UniProt Q13526). The experiment in a line: protease-coupled PPIase assay, hPin1. To be noted: 6 nM hPin1, substrate Ac-Ala-Ala-Ser(PO3H2)-Pro-Arg-pNA, trypsin, pH 7.8, 6° C.; read-out: IC50 class, Target T-1 (hPin1). The format is biochemical.
A short description of data set [2]: WST-1 cytotoxicity assay, HeLa. As to conditions: human, HeLa cells (cervix carcinoma); WST-1, 48 h incubation; read-out: EC50 class, cytotoxic effect, CL-2 (HeLa). The format is cell-based. The procedure, abridged: (§1)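 Human tumour cell lines in culture were exposed to compounds at 37° C for 48 h, then given WST-1. Viability was read as formazan absorbance at (450 vs. 620) nm.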
Background: Formazan colour is commonly taken as a measure of viable cells.

A short description of data set [3]: WST-1 cytotoxicity assay, HL-60. The data set is classed as cell-based. As to conditions: human, HL-60 cells (acute myeloid leukemia); WST-1, 48 h incubation; read-out: EC50 class, cytotoxic effect, CL-1 (HL-60). The procedure, abridged:
as §1

The target in data set [4] is hFKBP12 (Homo sapiens, UniProt P62942). The experiment in a line: protease-coupled PPIase assay, hFKBP12. The data set is classed as biochemical. To be noted: 20 nM hFKBP12, substrate Suc-Ala-Phe-Pro-Phe-pNA, chymotrypsin, pH 7.8, 6° C.; read-out: IC50 class, Target T-2 (hFKBP12).
Chain of hFKBP12 (P62942 whole entry): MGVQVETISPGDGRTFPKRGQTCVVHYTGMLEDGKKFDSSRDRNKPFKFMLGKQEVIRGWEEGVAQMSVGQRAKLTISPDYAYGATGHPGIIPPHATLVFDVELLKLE
Data set [5] in a line: WST-1 cytotoxicity assay, PC-3. To be noted: human, PC-3 cells (prostate carcinoma); WST-1, 48 h incubation; read-out: EC50 class, cytotoxic effect, CL-3 (PC-3). The format is cell-based. The procedure, abridged:
as §1

Data set [6] addresses cathepsin B (Homo sapiens, UniProt P07858). The experiment in a line: cathepsin B assay. The data set is classed as biochemical. As to conditions: 0.2 μg/ml cathepsin B, 2 mM Z-Arg-Arg-pNA, pH 5.8, 30° C., 30 min incubation; read-out: IC50 class, Target T-8 (Cathepsin). The procedure, abridged: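 Enzyme pre-incubated 30 min with 1-100 μM compound at 30° C, then pNA substrate added; 4-nitroaniline release read at 390 nm. Trypsin: 0.1 μg/ml, 120 μM Ac-Ala-Ala-Ser(PO3H2)-Pro-Arg-pNA, HEPES pH 7.8; cathepsin B: 0.2 μg/ml, 2 mM Z-Arg-Arg-pNA, phosphate/EDTA/Brij 35 pH 5.8; papain: 16 μg/ml, 2 mM Bz-DL-Arg-pNA, phosphate/L-Cys/EDTA pH 6.5.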

Data set [7] in a line: WST-1 cytotoxicity assay, MCF-7. The data set is classed as cell-based. As to conditions: human, MCF-7 cells (breast adenocarcinoma); WST-1, 48 h incubation; read-out: EC50 class, cytotoxic effect, CL-5 (MCF-7). The procedure, abridged:
as §1

In data set [8] the target is T1, Trypsin (UniProt P00760).
T1 sequence (P00760 1-246): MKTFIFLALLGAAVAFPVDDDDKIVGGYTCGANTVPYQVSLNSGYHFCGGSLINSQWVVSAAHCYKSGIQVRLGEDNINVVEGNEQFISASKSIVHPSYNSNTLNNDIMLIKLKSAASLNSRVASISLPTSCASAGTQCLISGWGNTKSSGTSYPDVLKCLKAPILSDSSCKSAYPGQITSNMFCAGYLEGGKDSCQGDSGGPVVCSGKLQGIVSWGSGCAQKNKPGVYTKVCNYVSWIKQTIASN
The experiment in a line: trypsin assay. The format is biochemical. As to conditions: 0.1 μg/ml trypsin, 120 μM Ac-Ala-Ala-Ser(PO3H2)-Pro-Arg-pNA, pH 7.8, 30° C., 30 min incubation; read-out: IC50 class, Target T-7 (Trypsin). The protocol:
In order to investigate the impact of some of the inventive compounds on the activity of key proteases the following assay was performed: Protease activities were measured spectrophotometrically at 30° C. according to Schomburg and Salzmann (Schomburg, B.; Salzmann M. GBF: Enzyme Handbook. Springer Verlag, Berlin Heidelberg, 1991) and Bergmeyer et al. (Bergmeyer, H. U.; Bergmeyer, J.; Graβl, M. Methods of Enzymatic Analysis, Vol. V Enzymes 3: Peptides, Proteinases and Their Inhibitors. pp 55-371, VCH, Weinheim, 1988). The release of 4-nitroaniline was determined at 390 nm with a Spectramax Plus UV/Vis spectrophotometer (Molecular Devices). The cathepsin B assay was performed in a reaction mixture containing 0.2 μg/ml cathepsin B, 2 mM Z-Arg-Arg-pNA in 88 mM KH2PO4, 12 mM Na2HPO4, 1.33 mM EDTA, 0.03% Brij 35 (pH 5.8). The trypsin assay was carried out in a reaction mixture containing 0.1 μg/ml trypsin and 120 μM Ac-Ala-Ala-Ser(PO3H2)-Pro-Arg-pNA in 35 mM HEPES (pH 7.8) and the papain assay in a mixture consisting of 16 μg/ml papain and 2 mM Bz-DL-Arg-pNA in 10 mM Na2HPO4, 2 mM L-Cys, 5 mM EDTA (pH 6.5). In general, reactions were started by addition of peptide substrate after a 30 min incubation of 1-100 μM effector with given concentrations of enzyme.

In data set [9] the test system is HL-60 cells. The experiment in a line: FACS measurements and TUNEL assay (Apo-Direct kit). To be noted: FIG. 2. The data set is classed as cell-based, human. An excerpt:
Enari M. Sakahira H. Yokoyama H. Okawa K. Iwamatsu A. Nagata S. A caspase-activated DNase that degrades DNA during apoptosis, and its inhibitor ICAD [erratum appears in Nature 1998 May 28; 393(6683):396.]. Nature. 391:43-50, 1998 • Darzynkiewicz Z. Juan G. Li X. Gorczyca W. Murakami T. Traganos F. Cytometry in cell necrobiology: analysis of apoptosis and accidental cell death (necrosis). Cytometry. 27:1-20, 1997
Apoptotic HL-60 cells were detected by FACS analysis of FITC-dUTP-labelled DNA breaks using the Apo-Direct kit (BD-Pharmingen) according to the manufacturer's protocol.

Data set [10] addresses hCyp18 (Homo sapiens, UniProt P62937). The experiment in a line: protease-coupled PPIase assay, hCyp18. As to conditions: 10 nM hCyp18, substrate Suc-Ala-Phe-Pro-Phe-pNA, chymotrypsin, pH 7.8, 6° C.; read-out: IC50 class, Target T-3 (hCyp18). The data set is classed as biochemical.
The nature of data set [11]: WST-1 cytotoxicity assay, Caco-2. The format is cell-based. To be noted: human, Caco-2 cells (colon adenocarcinoma); WST-1, 48 h incubation; read-out: EC50 class, cytotoxic effect, CL-4 (Caco-2). Here is the method: For this cytotoxic evaluation of the compounds the commercial available WST-1 assay (Roche) was used according to the manufacturer's instructions. The assay is based on the cleavage of the tetrazolium salt WST-1 by mitochondrial dehydrogenases found in viable cells. In general compounds were added to cells cultured in 96-well plates at 37° C. After 48 h of incubation 10 μl of WST-1 solution was added. The formazan dye was analyzed with an ELISA plate reader at (450 vs. 620) nm. CL-1: human acute myeloid leukemia, HL-60 CL-2: human cervix carcinoma, HeLa CL-3: human prostate carcinoma, PC-3 CL-4: human colon adenocarcinoma, Caco-2 CL-5: human breast adenocarcinoma, MCF-7

Data set [12] has as its target EcParvulin (Escherichia coli, UniProt P0A9L5). Kind of data set: protease-coupled PPIase assay, EcParvulin. The data set is classed as biochemical.

Bounds are passed on as bounds.

Chain of hCyp18 (P62937 whole entry): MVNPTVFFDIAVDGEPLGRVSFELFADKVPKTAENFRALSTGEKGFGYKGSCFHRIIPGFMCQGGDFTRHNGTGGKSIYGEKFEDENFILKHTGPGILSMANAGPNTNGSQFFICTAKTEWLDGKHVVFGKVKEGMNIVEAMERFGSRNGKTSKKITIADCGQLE
Chain of hPin1 (Q13526 whole entry): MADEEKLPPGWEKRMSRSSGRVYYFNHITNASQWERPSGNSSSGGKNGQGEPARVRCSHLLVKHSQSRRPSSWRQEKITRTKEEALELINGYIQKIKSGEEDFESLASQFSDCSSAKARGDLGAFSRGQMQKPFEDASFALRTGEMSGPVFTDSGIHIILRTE
Chain of EcParvulin (P0A9L5 whole entry): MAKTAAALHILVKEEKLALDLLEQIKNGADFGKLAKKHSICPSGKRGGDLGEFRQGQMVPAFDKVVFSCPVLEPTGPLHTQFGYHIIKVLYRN

Turning to `Cc1c(Cl)cc(NC(=O)NC(C)(C)CC(C)(C)C)c(O)c1Cl` [Compound 102], the IC50 in data set [1] was 1 to 10 µM; in data set [4], over 100 µM; in data set [6], 50 to 100 µM; in data set [8], 10 to 50 µM; in data set [10], 10 to 50 µM; in data set [12] it was 1 to 10 µM. The EC50 at 48 h in [2], in data set [3], in data set [5], in data set [7] and in [11] was under 10 µM in each case. The “induction of apoptosis (FACS analysis of FITC-dUTP-labelled DNA breaks)” value in data set [9] was “induce apoptosis”.

Usually IC50 stands for the concentration at which inhibition is half-maximal. As a reminder, the EC50 is the concentration that produces a half-maximal response.
